Experimental data: publication PMC8596838, “Xylose‐Configured Cyclophellitols as Selective Inhibitors for Glucocerebrosidase” (Chembiochem, 2021)
Like-named read-outs stand apart in the source and are kept apart here.

Assays:
Type in all cases: biochemical
[1] = target: T1, rhGBA (recombinant human GBA, Imiglucerase) (Homo sapiens, UniProt P04062, R534H); assay: Fluorogenic substrate (4-MU-β-D-glucoside) enzymatic assay, rhGBA; settings: for inhibitory activity against GBA: in vitro, 30 min
T1 construct: purchased Sanofi Genzyme (Cambridge, MA, USA)
T1 sequence (P04062 40-536 R534H): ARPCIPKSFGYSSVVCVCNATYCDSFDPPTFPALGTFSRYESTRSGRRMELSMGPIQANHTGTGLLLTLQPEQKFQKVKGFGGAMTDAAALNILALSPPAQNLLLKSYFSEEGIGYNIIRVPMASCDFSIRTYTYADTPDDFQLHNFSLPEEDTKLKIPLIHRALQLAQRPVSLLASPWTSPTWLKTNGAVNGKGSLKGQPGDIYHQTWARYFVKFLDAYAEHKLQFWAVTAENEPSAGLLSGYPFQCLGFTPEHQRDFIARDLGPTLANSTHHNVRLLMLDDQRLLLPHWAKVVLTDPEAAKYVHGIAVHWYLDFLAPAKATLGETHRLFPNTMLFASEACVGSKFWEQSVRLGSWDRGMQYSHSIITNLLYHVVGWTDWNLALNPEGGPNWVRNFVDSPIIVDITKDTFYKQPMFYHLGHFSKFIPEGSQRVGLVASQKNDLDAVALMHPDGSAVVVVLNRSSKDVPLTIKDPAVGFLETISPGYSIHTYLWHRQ
Method: (§1) Using fluorogenic substrate‐based assays, we determined apparent IC50 values at 30 min incubation time of the xylo‐cyclophellitols in rhGBA, and GBA2 and GBA3 lysates of cells expressing only each of the enzymes specifically.
(§2) Enzyme activity assays: All assays were performed with lysates of HEK293T cells or zebrafish larvae in 96‐well plates at 37 °C. Samples were diluted with McIlvaine buffer (150 mM citric acid‐Na2HPO4) to a final volume of 25 μL, at pH appropriate for each enzyme. Assays were performed by incubating the samples with 100 μL 4‐methylumbelliferyl‐β‐D‐glucoside substrates diluted in McIlvaine buffer (with 0.1 % (w/v) bovine serum albumin (BSA)) for a period of 30 min or 3 h. The substrate mixtures used for each enzyme were as follows: GBA, 3.75 mM 4‐MU‐β‐D‐glucopyranoside (Glycosynth, Warrington Cheshire, UK) at pH 5.2, supplemented with 0.2 % (w/v) sodium taurocholate, 0.1 % (v/v) Triton X‐100, 0.1 % (w/v) bovine serum albumin (BSA); GBA2, 3.75 mM 4 MU‐β‐D‐glucopyranoside at pH 5.8; GBA3, 3.75 mM 4‐MU‐β‐D‐glucopyranoside at pH 6.0. After stopping the enzyme reaction with 200 μL 1 M NaOH‐glycine (pH 10.3), 4‐methylumbelliferone fluorescence was measured with a fluorimeter LS55 (Perkin Elmer, Waltham, MA, USA) with λEX 366 nm and λEM 445 nm. Enzyme activities were determined by subtraction of background (measured for incubations without enzyme). IC50 values were determined exactly as earlier described.[36]
(§3) The IC50 values were determined using a fluorogenic enzymatic assay. For GBA, 3.16 ng (53 fmol) of rhGBA, (recombinant human GBA, Imiglucerase) obtained from Sanofi Genzyme (Cambridge, MA, USA), was prepared in 12.5 μL McIlvaine buffer (150 mM, pH 5.2) supplemented with 0.1 % (v/v) Triton X‐100, and 0.2 % (w/v) sodium taurocholate, 0.1 % (w/v) bovine serum albumin (BSA). The enzyme was incubated with 12.5 μL of inhibitors diluted in McIlvaine buffer (150 mM, pH 5.2) at 37 °C for 30 min. In the case of GBA2 or GBA3, lysates of GBA/GBA2 KO HEK293T cells overexpressing GBA2 or GBA3, respectively where used. The enzymatic activity of GBA, GBA2 and GBA3 were measured with 4MU‐β‐D‐glucoside substrate as described above.

[2] = target: T1, rhGBA (recombinant human GBA, Imiglucerase); assay: as above
GBA2 = target: T2, GBA2 (Homo sapiens, UniProt Q9HCG7); assay: Fluorogenic substrate enzymatic assay, lysate of GBA/GBA2 KO HEK293T cells overexpressing GBA2; settings: for GBA2/GBA ratio, 3 h / (Ratio) GBA2/GBA: IC50 ratio; for IC50: n=3; for inhibitory activity against GBA2 / (Ratio) GBA2/GBA: in vitro, 30 min
T2 construct: expressed in transfected cells; host or cells: HEK293T (GBA/GBA2 KO background for the fluorogenic assay; endogenous-GBA background with GBA2 and GBA3 overexpressed for ABPP and intact-cell assays)
T2 sequence (Q9HCG7 1-927): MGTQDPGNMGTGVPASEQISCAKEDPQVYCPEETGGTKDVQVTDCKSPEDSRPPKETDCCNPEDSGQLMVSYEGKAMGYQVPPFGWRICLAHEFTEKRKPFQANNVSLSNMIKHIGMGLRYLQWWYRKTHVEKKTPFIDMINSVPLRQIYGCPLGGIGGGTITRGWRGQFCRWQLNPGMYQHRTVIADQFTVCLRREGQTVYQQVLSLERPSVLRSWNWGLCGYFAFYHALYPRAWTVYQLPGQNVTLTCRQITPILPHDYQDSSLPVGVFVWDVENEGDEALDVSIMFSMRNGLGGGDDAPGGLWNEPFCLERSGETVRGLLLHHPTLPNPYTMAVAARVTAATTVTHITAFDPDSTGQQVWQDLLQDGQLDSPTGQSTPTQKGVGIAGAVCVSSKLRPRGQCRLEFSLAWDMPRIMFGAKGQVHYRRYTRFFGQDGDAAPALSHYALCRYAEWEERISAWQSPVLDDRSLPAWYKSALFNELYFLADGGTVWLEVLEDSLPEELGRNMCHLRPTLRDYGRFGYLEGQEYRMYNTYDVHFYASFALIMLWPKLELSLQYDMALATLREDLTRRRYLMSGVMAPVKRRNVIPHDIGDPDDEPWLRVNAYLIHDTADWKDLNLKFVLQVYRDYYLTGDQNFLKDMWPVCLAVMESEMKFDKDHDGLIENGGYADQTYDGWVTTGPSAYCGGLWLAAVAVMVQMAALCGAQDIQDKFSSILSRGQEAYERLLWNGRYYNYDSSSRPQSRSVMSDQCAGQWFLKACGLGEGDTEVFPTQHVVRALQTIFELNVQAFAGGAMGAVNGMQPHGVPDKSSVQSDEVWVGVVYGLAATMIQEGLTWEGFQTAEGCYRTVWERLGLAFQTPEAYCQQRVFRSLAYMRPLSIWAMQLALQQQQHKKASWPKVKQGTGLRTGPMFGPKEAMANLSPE
Method: as §2
as §3, with “The enzyme was incubated with 12.5 μL of inhibitors diluted in McIlvaine buffer (150 mM, pH 5.2) at 37 °C for 30 min.” left out

GBA3 = target: T3, GBA3 (Homo sapiens, UniProt Q9H227); assay: Fluorogenic substrate enzymatic assay, lysate of GBA/GBA2 KO HEK293T cells overexpressing GBA3; settings: for inhibitory activity against GBA3 / (Ratio) GBA3/GBA: in vitro, 30 min; for (Ratio) GBA3/GBA: IC50 ratio; for IC50: incubation time 30 min, enzymatic assay, ±SD, n=3, read-out: In vitro apparent IC50 GBA3
T3 construct: expressed in transfected cells; host or cells: HEK293T (GBA/GBA2 KO background for the fluorogenic assay; endogenous-GBA background with GBA2 and GBA3 overexpressed for ABPP and intact-cell assays)
T3 sequence (Q9H227 1-469): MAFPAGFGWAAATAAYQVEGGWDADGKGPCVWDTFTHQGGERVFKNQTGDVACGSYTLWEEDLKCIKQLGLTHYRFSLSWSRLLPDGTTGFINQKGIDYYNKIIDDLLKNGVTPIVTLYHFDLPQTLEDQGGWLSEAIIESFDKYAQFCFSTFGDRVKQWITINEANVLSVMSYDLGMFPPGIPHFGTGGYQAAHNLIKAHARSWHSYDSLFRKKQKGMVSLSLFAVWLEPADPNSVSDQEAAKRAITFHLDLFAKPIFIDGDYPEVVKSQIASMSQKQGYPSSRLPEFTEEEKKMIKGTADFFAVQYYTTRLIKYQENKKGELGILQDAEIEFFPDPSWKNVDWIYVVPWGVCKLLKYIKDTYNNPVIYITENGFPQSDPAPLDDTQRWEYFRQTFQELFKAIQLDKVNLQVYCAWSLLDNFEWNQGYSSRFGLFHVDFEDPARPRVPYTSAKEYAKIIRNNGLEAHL
Method: as §1, §2, §3

[3] = enzymatic assay performed for 3 h, read-out: In vitro apparent IC50 GBA2, 3 h
[4] = incubation time 30 min, enzymatic assay, ±SD, read-out: In vitro apparent IC50 GBA2
[5] = incubation time 30 min, enzymatic assay, ±SD, n=3, read-out: In vitro apparent IC50 rhGBA

For O[C@H]1[C@H](O)[C@@H](O)[C@@H]2N[C@@H]2[C@@H]1O [compound 14, conduritol B‐aziridine, reference compound], the IC50 [1] was 1630 ± 70 nM, the “increase in inhibitory activity towards GBA of aziridines relative to epoxide analogues” value ([2]; in vitro 3 h) was “less than two‐fold increase” and the “GBA2/GBA ratio, 3 h” value (GBA2; in vitro 3 h) was 6.6. For the same compound, the IC50 (GBA2; [3]) was 10800 ± 3300 nM and the “increase in inhibitory activity towards GBA2 of aziridines relative to epoxide analogues” value (GBA2; in vitro 3 h) was 10–20 fold.
For O[C@@H]1[C@@H](O)[C@H](O)C[C@@H]2N[C@H]12 [compound 12], the “inhibitory activity against GBA3” value (GBA3) was “no or little inhibitory activity”, the “inhibitory activity against GBA” value [1] was “no or little inhibitory activity” and the “inhibitory activity against GBA2” value (GBA2) was “no or little inhibitory activity”. The IC50 (GBA2; [4]) was 55800 ± 2340 nM.
In the case of CC1=CC(C)=[N+]2C1=C(CCCCc1cn(CCCCCCCCN3[C@H]4[C@H](O)[C@@H](O)[C@H](O)C[C@H]43)nn1)c1c(C)cc(C)n1[B-]2(F)F (some centres unmarked) [ABP 8], the “(Ratio) GBA3/GBA” value (GBA3) is reported as 193, the IC50 (GBA3) is reported as 522 ± 209 nM and the IC50 [1, 5] is reported as 2.7 ± 0.45 nM. The “(Ratio) GBA2/GBA” value (GBA2) was 23 and the IC50 (GBA2; [4]) was 61.2 ± 12 nM.
CN1/C(=C/C=C/C=C/C2=[N+](CCCCCC(=O)NCc3cn(CCCCCCCCN4[C@@H]5[C@H](CO)[C@@H](O)[C@H](O)[C@@H](O)[C@@H]54)nn3)c3ccccc3C2(C)C)C(C)(C)c2ccccc21 (some centres unmarked) [ABP 10, reference compound] was tested, and the “(Ratio) GBA3/GBA” value (GBA3) was 1, the IC50 (GBA3) was 8.54 ± 1.18 nM and the IC50 [1, 5] was 8.1 ± 1.94 nM. The “(Ratio) GBA2/GBA” value (GBA2) was 2.6 and the IC50 (GBA2; [4]) was 21.5 ± 0.42 nM.
O[C@H]1[C@H](O)[C@@H](O)[C@@H]2O[C@@H]2[C@@H]1O [compound 13, Conduritol B‐epoxide, reference compound] was tested, and the “(Ratio) GBA3/GBA” value (GBA3) was >14, the IC50 (GBA3) was > 500000 nM and the IC50 [1, 5] was 34900 ± 1670 nM. The IC50 ([2]; enzymatic assay performed for 3 h, n=3, read-out: In vitro apparent IC50 rhGBA, 3 h) was 2630 ± 340 nM, the “GBA2/GBA ratio, 3 h” value (GBA2; in vitro 3 h) was 40 and the “(Ratio) GBA2/GBA” value (GBA2) was >14. For the same compound, the IC50 (GBA2; [3]) was 105000 ± 5850 nM and the IC50 (GBA2; [4]) was > 500000 nM.
O[C@@H]1[C@@H](O)[C@H](O)C[C@@H]2O[C@H]12 [compound 11, α‐D‐xylose‐configured cyclophellitol] was tested, and the “inhibitory activity against GBA3” value (GBA3) was “no or little inhibitory activity”, the “inhibitory activity against GBA” value [1] was “no or little inhibitory activity” and the “inhibitory activity against GBA2” value (GBA2) was “no or little inhibitory activity”.
For O=C(CCCCC1SCC2NC(=O)NC21)NCc1cn(CCCCCCCCN2C3CC(O)C(O)C(O)C32)nn1 (centres unmarked) [ABP 7], the “(Ratio) GBA3/GBA” value (GBA3) was 155, the IC50 (GBA3) was 25300 ± 5010 nM and the IC50 [1, 5] was 164 ± 22.1 nM. The “(Ratio) GBA2/GBA” value (GBA2) was 295 and the IC50 (GBA2; [4]) was 48300 ± 9010 nM.
